# Species: Rattus norvegicus
# Assay: Open TG-GATES - Regimen: Single
# Type: toxicity, organism-based, Sprague-Dawley
# Parameters: regimen Single, gender Male, age 6 weeks
# Conditions: in vivo, po, 2000 mg/kg, route gavage, dose level High; for APTT / Bas / Eos / Fbg / Hb / Ht / Lym / MCH / MCHC / MCV / Mono / Neu / PT / Plat / RBC / Ret / WBC: tissue Blood; for KIDNEY_L / KIDNEY_R / KIDNEY_TOTAL: tissue Kidney; for LIVER: tissue Liver; for A/G / ALP / ALT / AST / BUN / CRE / Ca / Cl / DBIL / GLC / IP / K / LDH / Na / PL / RALB / TBIL / TC / TG / TP / gamma-GTP: tissue Plasma
compound,measurement,setting,value
CCOc1ccc(NC(=O)CC(C)O)cc1 (configuration not stated) [BUCETIN],TERMINAL_BW,3 h,211.9 g
same,APTT,3 h,16.2 s
same,Bas,3 h,0%
same,Eos,3 h,1%
same,Fbg,3 h,308.4 mg/dL
same,Hb,3 h,13.1 g/dL
same,Ht,3 h,38.8%
same,Lym,3 h,74.8%
same,MCH,3 h,20.8 pg
same,MCHC,3 h,33.8%
same,MCV,3 h,61.7 fL
same,Mono,3 h,2.8%
same,Neu,3 h,21%
same,PT,3 h,13.7 s
same,Plat,3 h,123.8 x10_4/uL
same,RBC,3 h,628.8 x10_4/ul
same,Ret,3 h,8.2%
same,WBC,3 h,70.6 x10_2/uL
same,KIDNEY_L,3 h,0.9 g
same,KIDNEY_R,3 h,0.9 g
same,KIDNEY_TOTAL,3 h,1.9 g
same,LIVER,3 h,9.3 g
same,A/G,3 h,0.9
same,ALP,3 h,1367.8 IU/L
same,ALT,3 h,30.4 IU/L
same,AST,3 h,66 IU/L
same,BUN,3 h,9.2 mg/dL
same,CRE,3 h,0.1 mg/dL
same,Ca,3 h,10.8 mg/dL
same,Cl,3 h,103.8 meq/L
same,DBIL,3 h,0.032 mg/dL
same,GLC,3 h,198.4 mg/dL
same,IP,3 h,9.5 mg/dL
same,K,3 h,4.1 meq/L
same,LDH,3 h,67 IU/L
same,Na,3 h,141 meq/L
same,PL,3 h,148 mg/dL
same,RALB,3 h,2.5 g/dL
same,TBIL,3 h,0.054 mg/dL
same,TC,3 h,83.4 mg/dL
same,TG,3 h,52.2 mg/dL
same,TP,3 h,5.4 g/dL
same,gamma-GTP,3 h,1.2 IU/L
same,TERMINAL_BW,6 h,209.3 g
same,APTT,6 h,21.1 s
same,Bas,6 h,0.2%
same,Eos,6 h,0.4%
same,Fbg,6 h,315.2 mg/dL
same,Hb,6 h,13.7 g/dL
same,Ht,6 h,40.6%
same,Lym,6 h,79%
same,MCH,6 h,20.7 pg
same,MCHC,6 h,33.7%
same,MCV,6 h,61.2 fL
same,Mono,6 h,2.2%
same,Neu,6 h,17.8%
same,PT,6 h,13.5 s
same,Plat,6 h,124.4 x10_4/uL
same,RBC,6 h,662.8 x10_4/ul
same,Ret,6 h,8.2%
same,WBC,6 h,64.5 x10_2/uL
same,KIDNEY_L,6 h,0.9 g
same,KIDNEY_R,6 h,0.9 g
same,KIDNEY_TOTAL,6 h,1.9 g
same,LIVER,6 h,8.5 g
same,A/G,6 h,0.9
same,ALP,6 h,1336.4 IU/L
same,ALT,6 h,36.2 IU/L
same,AST,6 h,68.6 IU/L
same,BUN,6 h,8.4 mg/dL
same,CRE,6 h,0.1 mg/dL
same,Ca,6 h,10.6 mg/dL
same,Cl,6 h,102.2 meq/L
same,DBIL,6 h,0.032 mg/dL
same,GLC,6 h,201.8 mg/dL
same,IP,6 h,10.1 mg/dL
same,K,6 h,3.7 meq/L
same,LDH,6 h,79.4 IU/L
same,Na,6 h,141.2 meq/L
same,PL,6 h,147.4 mg/dL
same,RALB,6 h,2.6 g/dL
same,TBIL,6 h,0.048 mg/dL
same,TC,6 h,85.2 mg/dL
same,TG,6 h,27.6 mg/dL
same,TP,6 h,5.5 g/dL
same,gamma-GTP,6 h,1.4 IU/L
same,TERMINAL_BW,9 h,208.4 g
same,APTT,9 h,18.5 s
same,Bas,9 h,0%
same,Eos,9 h,0.8%
same,Fbg,9 h,314.8 mg/dL
same,Hb,9 h,13.3 g/dL
same,Ht,9 h,39%
same,Lym,9 h,80.6%
same,MCH,9 h,20.8 pg
same,MCHC,9 h,34%
same,MCV,9 h,61.1 fL
same,Mono,9 h,2.2%
same,Neu,9 h,16.2%
same,PT,9 h,14.1 s
same,Plat,9 h,119.7 x10_4/uL
same,RBC,9 h,639.8 x10_4/ul
same,Ret,9 h,8.3%
same,WBC,9 h,54.6 x10_2/uL
same,KIDNEY_L,9 h,0.9 g
same,KIDNEY_R,9 h,0.9 g
same,KIDNEY_TOTAL,9 h,1.9 g
same,LIVER,9 h,8.2 g
same,A/G,9 h,0.9
same,ALP,9 h,1215 IU/L
same,ALT,9 h,28.8 IU/L
same,AST,9 h,62.8 IU/L
same,BUN,9 h,8.2 mg/dL
same,CRE,9 h,0.1 mg/dL
same,Ca,9 h,10.5 mg/dL
same,Cl,9 h,103.4 meq/L
same,DBIL,9 h,0.042 mg/dL
same,GLC,9 h,199.2 mg/dL
same,IP,9 h,9.8 mg/dL
same,K,9 h,4.1 meq/L
same,LDH,9 h,64.2 IU/L
same,Na,9 h,140.6 meq/L
same,PL,9 h,150.6 mg/dL
same,RALB,9 h,2.6 g/dL
same,TBIL,9 h,0.052 mg/dL
same,TC,9 h,82.6 mg/dL
same,TG,9 h,43.6 mg/dL
same,TP,9 h,5.5 g/dL
same,gamma-GTP,9 h,1 IU/L
same,TERMINAL_BW,24 h,202.1 g
same,APTT,24 h,17.9 s
same,Bas,24 h,0.4%
same,Eos,24 h,0.8%
same,Fbg,24 h,294.2 mg/dL
same,Hb,24 h,14 g/dL
same,Ht,24 h,41.4%
same,Lym,24 h,79.2%
same,MCH,24 h,20.9 pg
same,MCHC,24 h,33.8%
same,MCV,24 h,61.7 fL
same,Mono,24 h,3%
same,Neu,24 h,16%
same,PT,24 h,14.4 s
same,Plat,24 h,128.9 x10_4/uL
same,RBC,24 h,670 x10_4/ul
same,Ret,24 h,7.1%
same,WBC,24 h,75.9 x10_2/uL
same,KIDNEY_L,24 h,1 g
same,KIDNEY_R,24 h,0.9 g
same,KIDNEY_TOTAL,24 h,1.9 g
same,LIVER,24 h,8.4 g
same,A/G,24 h,0.9
same,ALP,24 h,1381.2 IU/L
same,ALT,24 h,46.2 IU/L
same,AST,24 h,96.4 IU/L
same,BUN,24 h,11.8 mg/dL
same,CRE,24 h,0.2 mg/dL
same,Ca,24 h,10.9 mg/dL
same,Cl,24 h,104.8 meq/L
same,DBIL,24 h,0.078 mg/dL
same,GLC,24 h,175.2 mg/dL
same,IP,24 h,9.7 mg/dL
same,K,24 h,4.1 meq/L
same,LDH,24 h,102.4 IU/L
same,Na,24 h,142.4 meq/L
same,PL,24 h,166.6 mg/dL
same,RALB,24 h,2.7 g/dL
same,TBIL,24 h,0.078 mg/dL
same,TC,24 h,97.6 mg/dL
same,TG,24 h,57 mg/dL
same,TP,24 h,5.8 g/dL
same,gamma-GTP,24 h,1 IU/L
